Tests used:
[1] = Absolute quantum yields (Q) in DMSO solution; format: physicochemical
Source text: The absolute quantum yields of the chromophore (compound 9) and dendrimers (Ln8-)G3P-(Bodipy1)n (n=16, 32; Ln=Yb^3+, Nd^3+) are summarized in Table 1. Significant decreases (6 and 3.4 times) in quantum emission efficiencies from the aza-BODIPY-COOH chromophoric moieties for the functionalized dendrimers, G3P-(aza-BODIPY)32 and G3P-(aza-BODIPY)16, respectively. […] On the other hand, the Q values are increased by 1.7 and 1.4 times for G3P-(Bodipy1)32 during the encapsulation of the lanthanide cations Yb^3+ and Nd^3+, respectively.

HeLa cells [2] = assay: Cellular internalization by flow cytometry (NaN3 or 4° C. inhibition); format: cell-based, human; conditions: 1.5 μM; for Cellular internalization, Active (percentage inhibited with NaN3): NaN3 treatment
Description: HeLa cells were incubated for 30 min with a 1.5 μM concentration solution of chromophores and dendrimers (Ln8-)G3P-(Bodipy1)n (n=16, 32; Ln=Yb^3+, Nd^3+) as control. In order to block the active and passive transport pathways, HeLa cells were treated with NaN3 (active internalization inhibitor) or pre-incubated at 4° C. for 30 min (inhibition of active and passive pathways) before incubation with the dendrimers.
Cytometry has been used to quantify cell internalization of dendrimers and to better understand signal intensity differences observed in confocal microscopy. The mechanisms of passive (non-dependent energy) and active (energy dependent) internalization of cells have been studied. Active transport was inhibited with sodium azide (NaN3), while incubation at 4° C. inhibited active and passive transport pathways by increasing the plasma membrane stiffness of HeLa cells (S. Vranic, N. Boggetto, V. Contremoulins, S. Mornet, N. Reinhardt, F. Marano, A. Baeza-Squiban, S. Boland, Deciphering the mechanisms of cellular uptake of nanoparticles by accurate evaluation of internalization for cytometry, Particle and Fiber Toxicology, 10 (2013) 1-16).
However, for both types of dendrimers, internalization is consistently higher for those containing Yb^3+ than for those containing Nd^3+. […] For the chromophore compound 9, a relatively strong emission signal was observed and corresponding to 65% internalization of Yb8G3P-(Bodipy1)16. […] Dendrimers enter cells through active and passive transport pathways (FIG. 8). The relative percentages of active or passive internalization vary according to the number of Bodipy chromophore and the presence of Ln^3+. […] However, further studies are needed to clarify the exact mechanisms of active transportation. […]

HeLa cells [3] = assay: Alamar Blue cytotoxicity test; format: cell-based, human; conditions: up to 2 μM, 24 h incubation
Description: In order to determine the potential toxicity of the described dendrimers, an Alamar Blue test was performed on the HeLa […] carcinoma human cell line (FIG. 6). Different concentrations of chromophores (compound 9) and dendrimers (Ln8-)G3P-(Bodipy1)n (n=16, 32; Ln=Yb^3+, Nd^3+) were tested.

Absorption spectra = format: physicochemical; conditions: DMSO, low energy main band at 672 nm
Source text: For the sake of comparison, the absorption spectrum of compound 9 is multiplied by a factor corresponding to the number of chromophores attached to the branches of the dendrimer, for example, by 16 for (Ln8-) G3P-(Bodipy1)16 and by 32 for (Ln8-) G3P-(Bodipy1)32.
The absorption spectrum of the Bodipy chromophore (compound 9) measured in a DMSO solution has a broad band of up to 770 nm with a low energy main band at 672 nm (ϵ=2.1.10^5 M^−1 cm^−1), FIG. 3). […] On the other hand, the molar coefficient of absorption increases with the number of Bodipy chromophore units attached.
Absorption spectra of the Yb8-G3P-(TPP)32 complex were recorded in DMSO and in the DMSO/(Opti-MEM/FCS, 6: 94%) mixture (FIG. 13).

[4] = Photobleaching / photostability under continuous illumination; format: physicochemical; conditions: 10 μM in DMSO, uninterrupted illumination at 670 nm for 3 h, emission at 735 nm
Description: The experiments were carried out for a solution at 10 μM in DMSO and under uninterrupted illumination at 670 nm, the emission being collected at 735 nm.
To test the photostability of the system, the chromophore (compound 9) and the dendrimers (Ln8-)G3P-(Bodipy1)n (n=16, 32; Ln =Yb^3+, Nd^3+) were continuously illuminated with 670 […]. nm and the emission signal was monitored at 735 nm. […] However, the photostability of G3P-(Bodipy1)16 could be improved by the incorporation of Ln^3+. In addition, it turned out to be dependent on the nature of the lanthanides. […] As for the initial chromophore, compound 9 (FIG. 5) loses 75% of its luminescence intensity after 3 hours of illumination. Therefore, in general, the attachment of the chromophore moieties to the dendrimer structure and the presence of Ln^3+ can be advantageously used to provide and enhance the photostability of the probe.
The continuous illumination of G3P-(Alkyne)x-(Cyanine)y (x=22-24, y=8-10) with a light centered at 665 nm makes it possible to estimate the photostability of the dendrimers which appears to be rather weak. (FIG. 11).

HeLa cells [5] = assay: Confocal fluorescence microscopy imaging; format: cell-based, human; conditions: 30 min incubation, 1.5 μM, λex 633 nm (laser 6%), λem 650-800 nm
Description: HeLa cells after 30 min of incubation with a solution of 1.5 μM compound 9 and dendrimer (Ln8-)G3P-(Bodipy1)n (n=16, 32; Ln=Yb^3+, Nd^3+). The emission of aza-BODIPY (λex: 633 nm, λem: 650-800 nm) was observed under excitation at 633 nm (laser power at 6%). (Top) Yb8-G3P-(Bodipy1)16 (A), Nd8-G3P-(Bodipy1)16 (B), G3P-(Bodipy1)16 (C), Compound 9 (D) and (bottom) Yb8-G3P-(Bodipy1)32 (A), Nd8-G3P-(Bodipy1)32 (B), G3P-(Bodipy1)32 (C), untreated cells (D). The images are taken in the plane of the cellular nucleus. The white arrows indicate the specific localization of the dendrimers in the lysosomes and the yellow arrows indicate the filopods. 63× magnification lens.
Confocal microscopy experiments were performed to confirm the intracellular localization of the dendrimers (FIG. 7). For this purpose, HeLa cells were incubated for 30 min with a concentration solution of 1.5 μM, which corresponds to ˜89-100% of cell viability. The fluorescence of the dendrimers was observed using a 633 nm laser as the excitation source and the emission of aza-BODIPY was collected between 650 and 800 nm with an optical cut of 1 μm in the z axis. The same laser power was used for the different experiments to compare the signal intensity variations between different dendrimers.

quantum yield ratio versus Yb8-G3P-(aza-BODIPY)16 [1]: 3.4 times
Q (%) quantum yield ([1]; 10 μM in DMSO, room temperature, excitation 650 nm, emission collected 660 to 850 nm): 8.04(8) %
molar absorption coefficient ϵ (Absorption spectra): 2.1.10^5 M^−1 cm^−1
decrease of initial luminescence intensity [4]: 75%
Structure (SMILES): COc1ccc(-c2cc(-c3ccccc3)n(B(F)F)c2/N=C2\N=C(c3ccccc3)C=C2c2ccc(OCC(=O)O)cc2)cc1 [Compound 9, (Z)-2-(4-(2((1-(difluoroboryl)-3-(4-methoxyphenyl)-5-phenyl-1H-pyrrol-2-yl)imino)-5-phenyl-2H-pyrrol-3-yl)phenoxy)acetic acid]
Cellular internalization, Passive (HeLa cells [2]; difference between internalization inhibited at 4° C. and inhibited with sodium azide): 81 ± 1%
internalization relative to Yb8G3P-(Bodipy1)16 (HeLa cells [2]; 30 min incubation): 65%
Cellular internalization, Active (percentage inhibited with NaN3) (HeLa cells [2]; 30 min incubation): 19%
Cellular internalization, Active (percentage inhibited with NaN3) (HeLa cells [2]; 30 min incubation, listed as Composé{acute over ( )}9, 1.5 µM): 18 ± 4%
cell viability (HeLa cells [3]): ~100%
intracellular emission signal intensity (confocal) (HeLa cells [5]): signal of lower intensity

Source: patent US20190352511A1, “LANTHANIDE COMPLEXES COMPRISING DENDRIMERS” (UNIVERSITE D'ORLEANS, priority 2017, published 2019)
